Data on 1 compound can be found in patent US20260308184A1, “SUBSTITUTED PYRIMIDINEDIONE COMPOUNDS, COMPOSITIONS, AND USES THEREOF” (LAKEWOOD AMEDEX, INC., priority 2023, published 2026).

In brackets after ≈: the same amount, converted by molar mass.

Common to all, as to assay: Minimum Inhibitory Concentration, broth microdilution
Holding throughout (assay type): cell-based
What all share (details): pH 4-5, Mueller Hinton Broth, 18 to 24 hours

The test system of experiment [1] is Pseudomonas aeruginosa (6160). As for the experimental part: (§1) MIC testing is conducted using the broth (Mueller Hinton Broth) microdilution procedures relevant to each organism group as established by the Clinical and Laboratory Standards Institute (CLSI; 3-7). MIC plates are prepared in accordance with CLSI (3-7). To prepare the test plates, automated liquid handlers are used to conduct serial dilutions and liquid transfers. Automated liquid handlers utilized in this study include the Multidrop 384 (Labsystems, Helsinki, Finland) and the Biomek 2000 (Beckman Coulter, Fullerton CA). The solution is diluted to desired pH using 1 M Citric Acid or 1 M NaOH buffer. A standardized inoculum of each test organism is prepared per CLSI methods (3, 5-7) to equal a 0.5 McFarland standard in the appropriate media followed by an additional 1:20 dilution (1:10 for anaerobes).
(§2) The plates are then inoculated with 10 μL of the diluted 0.5 McFarland suspension using the Biomek 2000 from low to high drug concentration, resulting in a final concentration of approximately 5×10^5 CFU/mL per well. An un-inoculated plate is incubated for the purpose of assessing solubility of the drug in the test media. The plates are stacked 3 to 4 high, covered with a sterile lid on the top plate, and incubated for 18 to 24 hours according to CLSI. The MIC is recorded as the lowest concentration of respective compound that inhibited visible growth of the organism.

A further experiment concerns Escherichia coli (6260). How it is done:
as §1, §2

The test system of a further experiment is Escherichia coli (0102). As for the experimental part: as §1, §2
The subject of experiment [2] is Pseudomonas aeruginosa (6234). How it is done:
as §1, §2

The next experiment relates to Escherichia coli (6098). As for the experimental part: as §1, §2
The subject of experiment [3] is Pseudomonas aeruginosa (0103). How it is done: as §1, §2

Consider `Cc1cn([C@H]2C[C@H](O)[C@@H](COP(=O)(O)OCCCCO)O2)c(=O)[nH]c1=O` [R-9], for which the MIC is 100 mg/mL (≈ 254 mM) in experiment [1]; 100 mg/mL (≈ 254 mM) in the experiment on Escherichia coli (6260); 100 mg/mL (≈ 254 mM) with Escherichia coli (0102); 50 mg/mL (≈ 127 mM) in experiment [2]; 100 mg/mL (≈ 254 mM) against Escherichia coli (6098); 100 mg/mL (≈ 254 mM) in experiment [3].
